According to patent US20090012045A1, “Methods of Treating Cell Proliferative Disorders” (RIGEL PHARMACEUTICALS, INC., priority 2007, published 2009):

Assays:
[1] = biological target: T1, Ret (Homo sapiens, UniProt P07949); assay: Ret autophosphorylation, fluorescence polarization assay; format: biochemical; conditions: 4 ng Ret, 5 μM ATP, 20 min; read-out: IC50 for inhibition of Ret autophosphorylation
T1 construct: purchased Upstate 14-570
T1 sequence (P07949 658-1114 limits assumed): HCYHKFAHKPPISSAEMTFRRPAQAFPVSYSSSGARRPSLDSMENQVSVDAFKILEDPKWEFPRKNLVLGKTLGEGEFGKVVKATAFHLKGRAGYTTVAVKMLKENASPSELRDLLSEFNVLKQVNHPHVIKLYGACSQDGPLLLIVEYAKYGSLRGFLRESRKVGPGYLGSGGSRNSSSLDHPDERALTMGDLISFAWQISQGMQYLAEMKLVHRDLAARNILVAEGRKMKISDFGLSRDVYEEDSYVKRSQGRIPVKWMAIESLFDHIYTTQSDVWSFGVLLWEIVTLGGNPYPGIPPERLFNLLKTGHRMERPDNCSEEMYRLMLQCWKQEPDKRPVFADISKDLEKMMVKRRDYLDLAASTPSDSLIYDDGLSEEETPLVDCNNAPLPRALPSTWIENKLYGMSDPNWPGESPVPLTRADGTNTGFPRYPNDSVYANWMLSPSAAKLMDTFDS
Method: Compounds were serially diluted in DMSO starting from 500× the desired final concentration and then diluted to 1% DMSO in kinase buffer (20 mM HEPES, pH 7.4, 5 mM MgCl2, 2 mM MnCl2, 1 mM DTT, 0.1 mg/mL acetylated BGG). Compound in 1% DMSO (0.2% DMSO final) was mixed with ATP in kinase buffer at room temperature.
Reactions were allowed to proceed at room temperature.
The plates were incubated for 30 minutes in the dark at room temperature and then read on a Polarion fluorescence polarization plate reader (Tecan).
Data were converted to amount of phosphopeptide present using a calibration curve generated by competition with the phosphopeptide competitor provided in the Tyrosine Kinase Assay Kit, Green (Invitrogen).

[2] = biological target: Ret (h) (Homo sapiens, UniProt P07949); assay: RET kinase activity, [γ-33P-ATP] filter assay; format: biochemical
Method: RET kinase is pre-diluted to a 10× working concentration prior to addition into the assay. The composition of the dilution buffer is 20 mM MOPS pH 7.0, 1 mM EDTA, 0.1% p-mercaptoethanol, 0.01% Brij-35, 5% glycerol and 1 mg/ml BSA.
The reaction is initiated by the addition of the MgATP mix. After incubation for 40 minutes at room temperature, the reaction is stopped by the addition of 5 μL of a 3% phosphoric acid solution. 10 μL of the reaction is then spotted onto a P30 filtermat and washed three times for 5 minutes in 75 mM phosphoric acid and once in methanol prior to drying and scintillation counting.

[3] = in vitro metabolism of prodrug to active drug; format: in vitro ADME; conditions: rat plasma, rat hepatic and intestinal microsomal preparations
Text: Although phosphate-containing prodrugs suitable for oral administration are of interest, skilled artisans will appreciate that prodrugs including phosphate-containing progroups R^p can be administered via other routes of administration, as phosphatases are distributed throughout the body. […] Thus, the only requirement is that the particular phosphate-containing progroup R^p selected should be removable under the conditions of intended use.

[4] = in vivo metabolism of prodrug to active drug
Text: It has recently been discovered that a phosphate-containing prodrug according to the structure illustrated below (Compound P-1):
19, 2006 (US2006/0211657 A1), at paragraphs 134-142 and 146 of the printed publication.

[5] = compound concentration 0.03 micromoles
[6] = compound concentration 0.3 micromoles
[7] = compound concentration 1 micromoles
[8] = compound concentration 0.02 micromoles
[9] = compound concentration 0.2 micromoles

Chain of Ret (h) (P07949 29-1114): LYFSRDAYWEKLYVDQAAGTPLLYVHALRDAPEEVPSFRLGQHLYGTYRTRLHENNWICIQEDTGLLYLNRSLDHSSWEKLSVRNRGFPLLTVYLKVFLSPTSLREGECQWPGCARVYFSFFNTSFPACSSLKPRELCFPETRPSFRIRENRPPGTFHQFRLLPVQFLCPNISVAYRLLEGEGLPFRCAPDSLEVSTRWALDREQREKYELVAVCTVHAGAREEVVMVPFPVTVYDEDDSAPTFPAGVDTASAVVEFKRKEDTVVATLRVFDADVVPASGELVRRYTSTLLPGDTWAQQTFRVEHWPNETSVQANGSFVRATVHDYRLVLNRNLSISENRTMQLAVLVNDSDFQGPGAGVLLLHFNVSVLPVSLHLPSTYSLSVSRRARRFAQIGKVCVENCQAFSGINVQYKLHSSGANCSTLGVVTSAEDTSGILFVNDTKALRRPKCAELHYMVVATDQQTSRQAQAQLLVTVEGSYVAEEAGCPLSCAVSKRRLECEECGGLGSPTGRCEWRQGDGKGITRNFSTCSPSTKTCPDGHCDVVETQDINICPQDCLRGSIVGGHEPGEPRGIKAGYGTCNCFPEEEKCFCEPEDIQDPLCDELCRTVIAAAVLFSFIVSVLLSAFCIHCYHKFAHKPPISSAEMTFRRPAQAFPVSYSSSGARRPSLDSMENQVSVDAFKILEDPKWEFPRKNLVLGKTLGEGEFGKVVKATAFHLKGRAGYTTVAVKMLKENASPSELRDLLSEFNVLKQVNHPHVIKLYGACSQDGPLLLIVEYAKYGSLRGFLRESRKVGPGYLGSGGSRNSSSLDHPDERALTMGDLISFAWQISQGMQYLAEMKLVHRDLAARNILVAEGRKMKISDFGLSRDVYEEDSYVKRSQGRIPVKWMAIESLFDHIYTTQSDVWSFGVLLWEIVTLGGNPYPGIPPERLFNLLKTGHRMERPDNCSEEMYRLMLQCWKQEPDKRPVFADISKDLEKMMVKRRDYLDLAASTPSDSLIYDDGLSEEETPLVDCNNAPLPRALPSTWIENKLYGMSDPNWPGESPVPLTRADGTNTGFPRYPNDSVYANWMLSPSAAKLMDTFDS

Row | Compound | IC50 [1] [nM] | RET kinase autophosphorylation activity as a percentage of control RET kinase activity [2, 7] [%] | RET kinase autophosphorylation activity as a percentage of control RET kinase activity [2, 9] [%] | also measured
1 | Cc1nc2ccc(Nc3ncc(F)c(Nc4ccc5c(c4)NC(=O)C(C)(C)S5)n3)cc2[nH]1 [Compound 3, 6-(5-fluoro-2-(2-methyl-1H-benzo[d]imidazol-6-ylamino)pyrimidin-4-ylamino)-2,3-dimethyl-2H-benzo[b][1,4]thiazin-3(4H)-one] | 16.5 |  |  | 
2 | Cc1noc(COc2ccc(Nc3nc(Nc4cccc(O)c4)ncc3F)cc2)n1 [Compound 5, 3-(5-fluoro-4-(4-((3-methyl-1,2,4-oxadiazol-5-yl)methoxy)phenylamino)pyrimidin-2-ylamino)phenol] |  | 0 |  | RET kinase autophosphorylation activity as a percentage of control RET kinase activity ([2]; compound concentration 0.01 micromoles): 0%; RET kinase autophosphorylation activity as a percentage of control RET kinase activity [2, 5]: 0%; RET kinase autophosphorylation activity as a percentage of control RET kinase activity ([2]; compound concentration 0.1 micromoles): 0%; RET kinase autophosphorylation activity as a percentage of control RET kinase activity [2, 6]: 0%
3 | Cc1cc(Nc2cc(N3CCN(C)CC3)nc(Sc3ccc(NC(=O)C4CC4)cc3)n2)[nH]n1 [Compound 6, N-(4-(4-(3-methyl-1H-pyrazol-5-ylamino)-6-(4-methylpiperazin-1-yl)pyrimidin-2-ylthio)phenyl)cyclopropanecarboxamide] |  | 4 | 26 | RET kinase autophosphorylation activity as a percentage of control RET kinase activity [2, 8]: 78%
4 | Cc1ccc(Nc2ncc(F)c(Nc3ccc(OCC#N)cc3)n2)cc1S(N)(=O)=O [Compound 10] |  | 1 | 19 | 
5 | COc1cc(Nc2ncc(F)c(Nc3ccc4c(n3)NC(=O)C(C)(C)O4)n2)cc(O)c1OC [Compound 4, 6-(5-fluoro-2-(3-hydroxy-4,5-dimethoxy-phenylamino)pyrimidin-4-ylamino)-2,2-dimethyl-2H-pyrido[3,2-b][1,4]oxazin-3(4H)-one] | 7.3 |  |  | 
6 | Cc1cc(Nc2ncc(F)c(NC3CCCC3C(N)=O)n2)ccc1N1CCN(C)CC1 (centres unmarked) [Compound 7, 2-(5-fluoro-2-(3-methyl-4-(4-methylpiperazin-1-yl)phenylamino)pyrimidin-4-ylamino)cyclo-pentanecarboxamide] |  | 2 | 34 | RET kinase autophosphorylation activity as a percentage of control RET kinase activity [2, 8]: 74%
7 | 2-(3-(4-(2,2-difluoro-3-oxo-3,4-dihydro-2H-pyrido[3,2-b][1,4]oxazin-6-ylamino)-5-fluoropyrimidin-2-ylamino)phenoxy)-N-methylacetamide [Compound 2] | 11.8 | 0 |  | RET kinase autophosphorylation activity as a percentage of control RET kinase activity [2, 5]: 0%; RET kinase autophosphorylation activity as a percentage of control RET kinase activity ([2]; compound concentration 3 micromoles): 0%
8 | COc1cc(Nc2ncc(F)c(Nc3ccc4c(n3)N(COP(=O)(O)O)C(=O)C(C)(C)O4)n2)cc(OC)c1OC [Compound 9, (6-(5-fluoro-2-(3,4,5-trimethoxyphenylamino)pyrimidin-4-ylamino)-2,2-dimethyl-3-oxo-2H-pyrido[3,2-b][1,4]oxazin-4(3H)-yl)methyldihydrogenphosphate] |  | 11 |  | metabolism of prodrug to the active drug Compound 1 [3]: metabolize to the active drug Compound 1; RET kinase autophosphorylation activity as a percentage of control RET kinase activity [2, 6]: 47%; metabolism of prodrug to the active drug Compound 1 [4]: metabolizes in vivo to the corresponding active 2,4-pyrimidinediamine compound
